In patent publication US8735414B2 (priority 2009, dated 2014) one finds IC50 and melting point data, which are given here for 14 compounds.

Some results are limits rather than exact numbers.

A word on the IC50: it is the concentration needed to halve the response being measured. The melting point is the temperature, or range, at which the solid turns liquid.

For data set [1], the system named is bicistronic HCV replicon (replicon RNA, GenBank Accession No. AJ242654). The data set is described as follows: HCV Replicon Assay. The format is cell-based. The following applies: Hepatitis C virus, 72 h, read-out: Replicon IC50.

For the compound `Cc1ccc2c(C#N)c(-c3ccc(S(=O)(=O)N[C@@H](C)C(F)(F)F)cn3)n(C(C)C)c2c1` [compound 355, 6-[3-cyano-6-methyl-1-(propan-2-yl)-1H-indol-2-yl]-N-[(2S)-1,1,1-trifluoropropan-2-yl]pyridine-3-sulfonamide], the melting point is 211 to 216 °C. For the same compound, the concentration for half-maximal inhibition (IC50) in data set [1] was below 500 nM.
The like results for `C[C@H](NS(=O)(=O)c1cnc(-c2c(C#N)c3ccc(OC(F)F)cc3n2C2CCCCC2)nc1)C(F)(F)F` [compound 472, 2-[3-cyano-1-cyclohexyl-6-(difluoromethoxy)-1H-indol-2-yl]-N-[(2S)-1,1,1-trifluoropropan-2-yl]pyrimidine-5-sulfonamide] were, in that order, 187 to 189 °C and below 500 nM.
The like results for `Cc1nc(NS(=O)(=O)C(C)(C)C)ccc1-c1c(C(N)=O)c2cc(F)c(OC(F)F)cc2n1C(C)C` [compound 1095, 2-{6-[(tert-butylsulfonyl)amino]-2-methylpyridin-3-yl}-6-(difluoromethoxy)-5-fluoro-1-(propan-2-yl)-1H-indole-3-carboxamide] were, in that order, 234 to 235 °C and 500 to 2000 nM.
The like results for `C[C@H](NS(=O)(=O)c1cnc(-c2c(C#N)c3ccc(OC(F)F)cc3n2CC2CC2)nc1)C(F)(F)F` [compound 398, 2-[3-cyano-1-(cyclopropylmethyl)-6-(difluoromethoxy)-1H-indol-2-yl]-N-[(2S)-1,1,1-trifluoropropan-2-yl]pyrimidine-5-sulfonamide] were, in that order, 211 to 212 °C and below 500 nM.
`Cc1cc2c(cc1O)c(C(N)=O)c(-c1ccc(S(=O)(=O)NC(C)(C)C)cn1)n2C1CCC1` [compound 828, 2-[5-(tert-butylsulfamoyl)pyridin-2-yl]-1-cyclobutyl-5-hydroxy-6-methyl-1H-indole-3-carboxamide] had a melting point of 292 to 293 °C. The IC50 in data set [1] is 2000 to 5000 nM.
The like results for `Cc1ccc2c(c1)c(C#N)c(-c1ncc(S(=O)(=O)NC(CF)CF)cn1)n2C1CCCCC1` [compound 198, 2-(3-cyano-1-cyclohexyl-5-methyl-1H-indol-2-yl)-N-(1,3-difluoropropan-2-yl)pyrimidine-5-sulfonamide] were, in that order, 211 to 215 °C and 500 to 2000 nM.
The like results for `CCc1cc2c(cc1F)c(C(N)=O)c(-c1ccc(S(=O)(=O)N[C@@H](C)C(F)(F)F)cn1)n2-c1ncccn1` [compound 849, 6-ethyl-5-fluoro-1-(pyrimidin-2-yl)-2-(5-{[(2S)-1,1,1-trifluoropropan-2-yl]sulfamoyl}pyridin-2-yl)-1H-indole-3-carboxamide] were, in that order, 235 to 236 °C and below 500 nM.
`NC(=O)c1c(-c2ccc(S(=O)(=O)NC(CF)CF)cn2)n(C2CCC2)c2cc(OC(F)F)ccc12` [compound 581, 1-cyclobutyl-6-(difluoromethoxy)-2-{5-[(1,3-difluoropropan-2-yl)sulfamoyl]pyridin-2-yl}-1H-indole-3-carboxamide]: the melting point is 211 to 213 °C. The IC50 in data set [1] was below 500 nM.
Take `Cc1cc2c(cc1F)c(C(N)=O)c(-c1ccc(S(=O)(=O)N[C@@H](C)C(F)(F)F)cn1)n2C1CCC1` [compound 737, 1-cyclobutyl-5-fluoro-6-methyl-2-(5-{[(2S)-1,1,1-trifluoropropan-2-yl]sulfamoyl}pyridin-2-yl)-1H-indole-3-carboxamide]: the melting point was 190 to 194 °C. Further, the IC50 in data set [1] is below 500 nM.
The like results for `CCc1cc2c(cc1F)c(C#N)c(-c1ccc(S(=O)(=O)N[C@@H](C)C(F)(F)F)cn1)n2-c1ncc(C)cn1` [compound 976, 6-[3-cyano-6-ethyl-5-fluoro-1-(5-methylpyrimidin-2-yl)-1H-indol-2-yl]-N-[(2S)-1,1,1-trifluoropropan-2-yl]pyridine-3-sulfonamide] were, in that order, 201 to 206 °C and below 500 nM.
`C[C@H](NS(=O)(=O)c1cnc(-c2c(C#N)c3cc(F)ccc3n2C2CCCC2)nc1)C1CC1` [compound 530, 2-(3-cyano-1-cyclopentyl-5-fluoro-1H-indol-2-yl)-N-[(1S)-1-cyclopropylethyl]pyrimidine-5-sulfonamide] registered a melting point of 184 to 186 °C. Also, the IC50 in data set [1] was below 500 nM.
The like results for `Cc1ccc2c(c1)c(C#N)c(-c1ccc(S(=O)(=O)N[C@@H](C)C(F)(F)F)cn1)n2-c1ccc(F)cc1` [compound 920, 6-[3-cyano-1-(4-fluorophenyl)-5-methyl-1H-indol-2-yl]-N-[(2S)-1,1,1-trifluoropropan-2-yl]pyridine-3-sulfonamide] were, in that order, 195 to 200 °C and below 500 nM.
The like results for `CC(C)NS(=O)(=O)c1ccc(-c2c(C#N)c3cc(OC(F)F)ccc3n2C2CCCC2)nc1` [compound 21, 6-[3-cyano-1-cyclopentyl-5-(difluoromethoxy)-1H-indol-2-yl]-N-(propan-2-yl)pyridine-3-sulfonamide] were, in that order, 177 to 179 °C and below 500 nM.
The like results for `CC(C)c1ccc2c(C#N)c(-c3ncc(S(=O)(=O)NC(CF)CF)cn3)n(C3CCC3)c2c1` [compound 186, 2-[3-cyano-1-cyclobutyl-6-(propan-2-yl)-1H-indol-2-yl]-N-(1,3-difluoropropan-2-yl)pyrimidine-5-sulfonamide] were, in that order, 214 to 222 °C and below 500 nM.
